In experiment [1] the test system is monocytes. Briefly: Lipopolysaccharide-activated monocyte TNF production assay (LPS induced TNF release). Format: cell-based, human. To be noted: Homo sapiens, Monocyte; LPS induced TNF release from monocytes; read-out: LPS induced TNFa. The gist of the method: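 Adherent monocytes from human PBMCs were pretreated with compound 60 min, then stimulated with E. coli LPS (30 ng/mL stock added) for 4 h at 37 °C. Supernatant TNF-α measured by sandwich ELISA; concentration giving 50% TNF reduction derived by polynomial fit.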

The target of experiment [2] is p38α (Homo sapiens, UniProt Q16539). Nature of the experiment: p38 in-vitro HTRF enzyme assay. The settings on record: IC50 value ranges. In kind it is biochemical. Summed up: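 Activated recombinant human p38α with ATP and 100 nM GST-ATF2-Avitag, 1 h at RT in Tris pH 7.5/MgCl2 buffer; compound 10-point 3-fold series from about 1 μM final. HTRF 665/620 nm ratio; IC50 from 4-parameter fit, Ki via Cheng-Prusoff with experimental ATP Km.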
p38α, sequence (Q16539 whole entry): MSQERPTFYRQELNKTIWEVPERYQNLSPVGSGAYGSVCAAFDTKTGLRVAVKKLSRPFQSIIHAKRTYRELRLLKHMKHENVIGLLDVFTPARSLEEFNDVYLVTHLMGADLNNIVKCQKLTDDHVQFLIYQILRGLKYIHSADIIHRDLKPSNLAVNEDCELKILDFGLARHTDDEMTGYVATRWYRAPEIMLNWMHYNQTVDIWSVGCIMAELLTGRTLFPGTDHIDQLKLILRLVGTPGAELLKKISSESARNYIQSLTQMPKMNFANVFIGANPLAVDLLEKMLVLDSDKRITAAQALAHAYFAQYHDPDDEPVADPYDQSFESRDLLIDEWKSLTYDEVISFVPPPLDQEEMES

For experiment [3], the system named is THP1 cells. Nature of the experiment: Lipopolysaccharide-activated THP1 cell TNF production assay. Format: cell-based, human. The settings on record: Homo sapiens, THP-1; LPS-induced TNF-α production in THP1 cells. The gist of the method: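 THP1 cells at 1E6/mL were stimulated with LPS (1 μg/mL prepared stock) alongside 3-fold serially diluted compound for 3 h at 37 °C. Secreted TNF-α was quantified by electrochemiluminescence sandwich immunoassay. Percent of DMSO control was fitted to a 4-parameter logistic equation.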

`Cc1c(F)cc(C(=O)Nc2ccnn2C)cc1-c1ccn2c(-c3c(F)cccc3Cl)nnc2c1` [Example 61, 3-(3-(2-chloro-6-fluorophenyl)[1,2,4]triazolo[4,3-a]pyridin-7-yl)-5-fluoro-4-methyl-N-(1-methyl-1H-pyrazol-5-yl)benzamide]: the IC50 in experiment [1] was 100 to 250 nM; in experiment [2] it was 25 to 100 nM; in experiment [3] it was 25 to 100 nM.
Regarding `Cc1ccc(C(=O)NC2CC2)cc1-c1ccn2c(C3CCCC3)nnc2c1` [Example 95, 3-(3-cyclopentyl[1,2,4]triazolo[4,3-a]pyridin-7-yl)-N-cyclopropyl-4-methylbenzamide], the IC50 is 25 to 100 nM in experiment [1], under 25 nM in experiment [2] and under 25 nM in experiment [3].
`Cc1ccc(C(=O)NC2CC2)cc1-c1ccn2c(-c3ocnc3C)nnc2c1` [Example 57, N-cyclopropyl-4-methyl-3-(3-(4-methyl-1,3-oxazol-5-yl)[1,2,4]triazolo[4,3-a]pyridin-7-yl)benzamide]: the IC50 in experiment [1] was 250 to 1000 nM; in experiment [2], 25 to 100 nM; in experiment [3], 250 to 1000 nM.
For `Cc1ccc(C(=O)Nc2ccnn2C)cc1-c1ccn2c(-c3ccc(F)cc3C)ncc2c1` [Example 23, 3-(3-(4-fluoro-2-methylphenyl)imidazo[1,5-a]pyridin-7-yl)-4-methyl-N-(1-methyl-1H-pyrazol-5-yl)benzamide], the values for the IC50 in experiment [1], in experiment [2] and in experiment [3] were 25 to 100 nM, under 25 nM and under 25 nM, respectively.
For `Cc1ccc(C(=O)Nc2ccnn2C)cc1-c1ccn2c(-c3ccc(F)cc3C)nnc2c1` [Example 17, 3-(3-(4-fluoro-2-methylphenyl)[1,2,4]triazolo[4,3-a]pyridin-7-yl)-4-methyl-N-(1-methyl-1H-pyrazol-5-yl)benzamide], the IC50 in experiment [1], in experiment [2] and in experiment [3] was under 25 nM in each case.
As for `Cc1ccc(C(=O)NC2CC2)cc1-c1ccn2c(C(C)(C)C)nnc2c1` [Example 105, N-cyclopropyl-3-(3-(1,1-dimethylethyl)[1,2,4]triazolo[4,3-a]pyridin-7-yl)-4-methylbenzamide], the IC50 in experiment [1] is 25 to 100 nM; in experiment [2], under 25 nM; in experiment [3], 25 to 100 nM.
Turning to `Cc1ccc(C(=O)NC2CC2)cc1-c1ccn2c(N3CCOCC3)nnc2c1` [Example 101, N-cyclopropyl-4-methyl-3-(3-(4-morpholinyl)[1,2,4]triazolo[4,3-a]pyridin-7-yl)benzamide], the IC50 in experiment [1] lay in the range of 100 to 250 nM; in experiment [2], 25 to 100 nM; in experiment [3], 100 to 250 nM.
In the case of `Cc1ccc(C(=O)NC2CC2)cc1-c1ccn2c(-c3ccc(F)cc3C)nnc2c1` [Example 15, N-cyclopropyl-3-(3-(4-fluoro-2-methylphenyl)[1,2,4]triazolo[4,3-a]pyridin-7-yl)-4-methylbenzamide], the IC50 in experiment [1] is 25 to 100 nM; in experiment [2] it was under 25 nM; in experiment [3] it was under 25 nM.
In the case of `Cc1ccc(C(=O)NC2CC2)cc1-c1ccn2c(-c3ccc(S(C)(=O)=O)cc3)nnc2c1` [Example 12, N-cyclopropyl-4-methyl-3-(3-(4-(methylsulfonyl)phenyl)[1,2,4]triazolo[4,3-a]pyridin-7-yl)benzamide], the IC50 lay in the range of 250 to 1000 nM in experiment [1], 25 to 100 nM in experiment [2] and 1000 to 5000 nM in experiment [3].
Taken in the same sequence, the figures for `Cc1ccc(C(=O)NC2CC2)cc1-c1ccn2c(-c3ccccc3Cl)nnc2c1C` [Example 78, 3-(3-(2-chlorophenyl)-8-methyl[1,2,4]triazolo[4,3-a]pyridin-7-yl)-N-cyclopropyl-4-methylbenzamide] were 250 to 1000 nM, 25 to 100 nM and 25 to 100 nM.
Taken in the same sequence, the figures for `Cc1ccc(C(=O)Nc2ccnn2C)cc1-c1ccn2c(-c3ccccc3Cl)ncc2c1` [Example 9, 3-(3-(2-chlorophenyl)imidazo[1,5-a]pyridin-7-yl)-4-methyl-N-(1-methyl-1H-pyrazol-5-yl)benzamide] were 25 to 100 nM, under 25 nM and under 25 nM.

Values taken from patent US7700593B2, “Imidazo- and triazolo-pyridine compounds and methods of use thereof” (Amgen Inc., priority 2006, dated 2010).
